Measured values reported in patent US5441982A, “Therapeutics for management of cocaine induced toxicity” (priority 1993, dated 1995).
Values joined by “and” are separate entries in the source; they are usually repeats but may differ in a detail not shown here. Identical values can stand only once.

Tests used:
[1] = target: NMDA receptor; test: Competition binding, [^3 H]CGP 39653, mouse cortical membranes; settings: for Effect on binding of [^3 H]CGP 39653: 0.01 to 100 uM
Method: (§1) Affinity of selected reference drugs for the NMDA receptor
(§2) labeled with [^3 H]CGP 39653 and the PCP receptor
(§3) labeled with [^3 H]MK-801, relatively to the effect of
(§4) NOS inhibitors, in mouse cortical membranes.
(§5) Competition binding assays were carried out using 14 nM [^3 H]CGP 39653 and 2 nM [^3 H]MK-801. L-NAME and NO-Arg at a concentration range of 0.01 to 100 uM, each, had no effect (N.E.) on the binding of the two tritium labeled ligands. Data represents the mean ±S.D. of three experiments.

[2] = target: PCP receptor; test: Competition binding, [^3 H]MK-801, mouse cortical membranes; settings: for [^3 H]MK-801 Ki / Ki: 2 nM [^3 H]MK-801, mouse cortical membranes, mean ± S.D. of three experiments, N.E. = no effect at 0.01 to 100 uM; for Effect on binding of [^3 H]MK-801: 0.01 to 100 uM
Method: as §1, §2, §3, §4, §5

[3] = test system: cocaine induced seizures and lethality in Swiss-Webster mice; test: Effect of repeated cocaine administration on convulsive response and survival of mice pretreated with saline or NOS inhibitor; assay type: in vivo; settings: for Protection against development of convulsions / Protection against lethal effects of cocaine: 60 min before cocaine 45 mg/kg/day, 7 days; for Convulsions (number of animals that seized) / Convulsions (percentage) / Survival (number of animals that survived) / Survival (percentage): saline or L-NAME (100 mg/kg) 60 min before cocaine 45 mg/kg i.p. daily
Source text: In the search for safer agents that may be useful in treating cocaine induced toxicity, Applicant has discovered that drugs that block the enzyme nitric oxide (NO) synthase completely abolish cocaine induced seizures and lethality in mice (see TABLE 1). NO synthase inhibitors such as N-nitro-L-arginine methyl ester (L-NAME) and N-nitro-L-arginine (NO-Arg) are known drugs used clinically for the treatment of septic shock. […] Thus, it is though that NO, a putative neurotransmitter in the brain, is involved in DA-receptor mediated neurotoxicity. Applicant's recent studies are the first to document that NOS inhibitors have protective effects against cocaine induced toxicity. FIG. 1 and FIG. 2. Briefly, Swiss-Webster mice were pretreated with either saline, L-NAME (100 mg/kg/day) or NO-Arg (25 mg/kg/day) 60 min before the administration of cocaine (45 mg/kg/day) for 7 days. The progressive increase in the adverse and toxic effects of repetitive cocaine was manifested by an increase in the convulsive and lethal responses to cocaine. Following the 7th day of saline/cocaine treatment only 60% of the animals survived, and 100% of the animals seized.
Effect of repeated cocaine administration on convulsive
response and survival of Swiss-Webster mice pretreated with
either saline or L-NAME. Mice received a Single i.p.
injection of cocaine (45 mg/kg) each day 60 min after
pretreatment with either saline or L-NAME (100 mg/kg). Data
is expressed as the total number of animals that seized
and survived following the drugs treatment in three separate
experiments. Numbers in parentheses indicate percentage.

[4] = 14 nM [^3 H]CGP 39653, mouse cortical membranes, mean ± S.D. of three experiments, N.E. = no effect at 0.01 to 100 uM

Compound	[^3 H]MK-801 Ki [2]	Effect on binding of [^3 H]MK-801 [2]	Convulsions (number of animals that seized) ([3]; day 1)	Convulsions (percentage) ([3]; day 1)	Survival (number of animals that survived) ([3]; day 1)	Survival (percentage) ([3]; day 1)	Convulsions (number of animals that seized) ([3]; day 2)	Convulsions (percentage) ([3]; day 2)	Survival (number of animals that survived) ([3]; day 2)	Survival (percentage) ([3]; day 2)	Convulsions (number of animals that seized) ([3]; day 3)	Convulsions (percentage) ([3]; day 3)	Survival (number of animals that survived) ([3]; day 3)	Survival (percentage) ([3]; day 3)	Convulsions (number of animals that seized) ([3]; day 4)	Convulsions (percentage) ([3]; day 4)	Survival (number of animals that survived) ([3]; day 4)	Survival (percentage) ([3]; day 4)	Convulsions (number of animals that seized) ([3]; day 5)	Convulsions (percentage) ([3]; day 5)	other results
NC(CCCP(=O)(O)O)C(=O)O (stereo not drawn) [AP-5]																					Ki [1, 4]: 2230 ± 180 nM
COC(=O)[C@@H](N)CCCN=C(N)N[N+](=O)[O-] [L-NAME, N-nitro-L-arginine methyl ester]	N.E.	no effect	0/30	0%	30/30	100%	1/30	3%	30/30	100%	2/30	6%	30/30	100%	0/30	0%	30/30	100%	1/30	3%	Protection against development of convulsions ([3]; L-NAME 100 mg/kg/day): completely protected; Protection against lethal effects of cocaine ([3]; L-NAME 100 mg/kg/day): completely protected; Survival (number of animals that survived) ([3]; day 5): 30/30; Survival (percentage) ([3]; day 5): 100%; Convulsions (number of animals that seized) ([3]; day 6): 1/30; Convulsions (percentage) ([3]; day 6): 3%; Survival (number of animals that survived) ([3]; day 6): 30/30; Survival (percentage) ([3]; day 6): 100%; Convulsions (number of animals that seized) ([3]; day 7): 0/30; Convulsions (percentage) ([3]; day 7): 0%; Survival (number of animals that survived) ([3]; day 7): 30/30; Survival (percentage) ([3]; day 7): 100%; [^3 H]CGP 39653 Ki [1, 4]: N.E.; Effect on binding of [^3 H]CGP 39653 [1]: no effect
C[C@]12N[C@H](Cc3ccccc31)c1ccccc12 [MK-801]																					Ki [2]: 3 ± 0.2 nM
NC(=NCCC[C@H](N)C(=O)O)N[N+](=O)[O-] [NO-Arg, N-nitro-L-arginine]	N.E.	no effect																			Protection against development of convulsions ([3]; NO-Arg 25 mg/kg/day): completely protected; Protection against lethal effects of cocaine ([3]; NO-Arg 25 mg/kg/day): completely protected; [^3 H]CGP 39653 Ki [1, 4]: N.E.; Effect on binding of [^3 H]CGP 39653 [1]: no effect
c1ccc(C2(N3CCCCC3)CCCCC2)cc1 [PCP]																					Ki [2]: 55 ± 4 nM
COC(=O)[C@H]1[C@@H](OC(=O)c2ccccc2)C[C@@H]2CC[C@H]1N2C [cocaine]			4/36	11%	36/36	100%	14/36	38%	36/36	100%	20/36	55%	36/36	100%	22/34	65%	34/36	94%	24/33	72%	Convulsions had occurred (in words) ([3]; by the seventh day, uniform daily doses of cocaine): in all animals; Survival (number of animals that survived) ([3]; day 5): 33/36; Survival (percentage) ([3]; day 5): 91%; Convulsions (number of animals that seized) ([3]; day 6): 26/27; Convulsions (percentage) ([3]; day 6): 96%; Survival (number of animals that survived) ([3]; day 6): 27/36; Survival (percentage) ([3]; day 6): 75%; Convulsions (number of animals that seized) ([3]; day 7): 22/22; Convulsions (percentage) ([3]; day 7): 100%; Survival (number of animals that survived) ([3]; day 7): 22/36; Survival (percentage) ([3]; day 7): 60% and 61%
